Reference: PubChem BioAssay (NCI)
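In this assay, cells in 96-well plates receive the compound at five concentrations for 48 hours. Endpoints are linearly interpolated between the surrounding concentrations. GI50 = concentration required for 50% inhibition of growth. TGI is the concentration that stops growth completely.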

Assays:
Experiment in all cases: NCI-60 cell line screen, 48 h
UACC-257 melanoma = test system: UACC-257 melanoma
COLO 205 colon = test system: COLO 205 colon
SNB-19 CNS = test system: SNB-19 CNS
MOLT-4 leukemia = test system: MOLT-4 leukemia
SK-OV-3 ovarian = test system: SK-OV-3 ovarian
SNB-75 CNS = test system: SNB-75 CNS
MALME-3M melanoma = test system: MALME-3M melanoma
PC-3 prostate = test system: PC-3 prostate
EKVX NSCLC = test system: EKVX NSCLC
HCC-2998 colon = test system: HCC-2998 colon
M14 melanoma = test system: M14 melanoma
SF-268 CNS = test system: SF-268 CNS
KM12 colon = test system: KM12 colon
HCT-15 colon = test system: HCT-15 colon
NCI-H522 lung = test system: NCI-H522 lung
NCI-H460 lung = test system: NCI-H460 lung
A549 NSCLC = test system: A549 NSCLC
SK-MEL-2 melanoma = test system: SK-MEL-2 melanoma
HT29 colon = test system: HT29 colon
786-0 renal = test system: 786-0 renal
SK-MEL-28 melanoma = test system: SK-MEL-28 melanoma
DU-145 prostate = test system: DU-145 prostate
HS 578T breast = test system: HS 578T breast
SF-539 CNS = test system: SF-539 CNS
MCF7 breast = test system: MCF7 breast
UACC-62 melanoma = test system: UACC-62 melanoma
LOX IMVI melanoma = test system: LOX IMVI melanoma
NCI-H226 lung = test system: NCI-H226 lung
CCRF-CEM leukemia = test system: CCRF-CEM leukemia
OVCAR-5 ovarian = test system: OVCAR-5 ovarian
K-562 leukemia = test system: K-562 leukemia
NCI/ADR-RES ovarian = test system: NCI/ADR-RES ovarian
MDA-MB-231 breast = test system: MDA-MB-231 breast
IGROV1 ovarian = test system: IGROV1 ovarian
HL-60(TB) leukemia = test system: HL-60(TB) leukemia
TK-10 renal = test system: TK-10 renal
UO-31 renal = test system: UO-31 renal
HOP-62 NSCLC = test system: HOP-62 NSCLC
HOP-92 NSCLC = test system: HOP-92 NSCLC
SK-MEL-5 melanoma = test system: SK-MEL-5 melanoma
T-47D breast = test system: T-47D breast
MDA-MB-435 = test system: MDA-MB-435
RXF 393 renal = test system: RXF 393 renal
SR leukemia = test system: SR leukemia
CAKI-1 renal = test system: CAKI-1 renal
OVCAR-8 ovarian = test system: OVCAR-8 ovarian
ACHN renal = test system: ACHN renal
A498 renal = test system: A498 renal
SF-295 CNS = test system: SF-295 CNS
SW-620 colon = test system: SW-620 colon
OVCAR-4 ovarian = test system: OVCAR-4 ovarian
HCT-116 colon = test system: HCT-116 colon
NCI-H23 lung = test system: NCI-H23 lung
SN12C renal = test system: SN12C renal
BT-549 breast = test system: BT-549 breast
U251 CNS = test system: U251 CNS
RPMI-8226 leukemia = test system: RPMI-8226 leukemia
OVCAR-3 ovarian = test system: OVCAR-3 ovarian

Question: How did the GI50 (UACC-257 melanoma) turn out when `Cc1cc(NC(=O)CCc2ccc(N3C(N)=NC(N)=NC3(C)C)cc2)ccc1S(=O)(=O)F` was run?
Answer: 15.1 µM

Question: What about the TGI (UACC-257 melanoma) of the same compound?
Answer: > 100 µM

Question: And the GI50 (COLO 205 colon)?
Answer: 0.358 µM

Question: And the TGI (COLO 205 colon)?
Answer: > 100 µM

Question: And the GI50 (SNB-19 CNS)?
Answer: 0.269 µM

Question: What about the TGI (SNB-19 CNS) of the same compound?
Answer: > 100 µM

Question: And the GI50 (MOLT-4 leukemia)?
Answer: 1.27 µM

Question: What about the TGI (MOLT-4 leukemia) of the same compound?
Answer: > 100 µM

Question: And the GI50 (SK-OV-3 ovarian)?
Answer: 4.58 µM

Question: What about the TGI (SK-OV-3 ovarian) of the same compound?
Answer: > 100 µM

Question: What about the GI50 (SNB-75 CNS) of the same compound?
Answer: 0.517 µM

Question: And the TGI (SNB-75 CNS)?
Answer: 80.1 µM

Question: What about the GI50 (MALME-3M melanoma) of the same compound?
Answer: > 89.4 µM

Question: And the TGI (MALME-3M melanoma)?
Answer: > 100 µM

Question: What about the GI50 (PC-3 prostate) of the same compound?
Answer: 0.368 µM

Question: And the TGI (PC-3 prostate)?
Answer: > 100 µM

Question: And the GI50 (EKVX NSCLC)?
Answer: 0.884 µM

Question: And the TGI (EKVX NSCLC)?
Answer: > 100 µM

Question: And the GI50 (HCC-2998 colon)?
Answer: 0.709 µM

Question: What about the TGI (HCC-2998 colon) of the same compound?
Answer: > 100 µM

Question: And the GI50 (M14 melanoma)?
Answer: 0.737 µM

Question: What about the TGI (M14 melanoma) of the same compound?
Answer: > 100 µM

Question: And the GI50 (SF-268 CNS)?
Answer: 0.524 µM

Question: What about the TGI (SF-268 CNS) of the same compound?
Answer: > 100 µM

Question: And the GI50 (KM12 colon)?
Answer: 0.338 µM

Question: What about the TGI (KM12 colon) of the same compound?
Answer: > 63.7 µM

Question: And the GI50 (HCT-15 colon)?
Answer: 4.51 µM

Question: And the TGI (HCT-15 colon)?
Answer: > 100 µM

Question: And the GI50 (NCI-H522 lung)?
Answer: 3.66 µM

Question: What about the TGI (NCI-H522 lung) of the same compound?
Answer: > 100 µM

Question: And the GI50 (NCI-H460 lung)?
Answer: < 0.0246 µM

Question: What about the TGI (NCI-H460 lung) of the same compound?
Answer: 36.1 µM

Question: What about the GI50 (A549 NSCLC) of the same compound?
Answer: 0.151 µM

Question: And the TGI (A549 NSCLC)?
Answer: > 100 µM

Question: What about the GI50 (SK-MEL-2 melanoma) of the same compound?
Answer: > 55.9 µM

Question: And the TGI (SK-MEL-2 melanoma)?
Answer: > 100 µM

Question: What about the GI50 (HT29 colon) of the same compound?
Answer: < 0.0374 µM

Question: And the TGI (HT29 colon)?
Answer: > 100 µM

Question: What about the GI50 (786-0 renal) of the same compound?
Answer: 0.291 µM

Question: What about the TGI (786-0 renal) of the same compound?
Answer: > 100 µM

Question: And the GI50 (SK-MEL-28 melanoma)?
Answer: > 32.6 µM

Question: What about the TGI (SK-MEL-28 melanoma) of the same compound?
Answer: > 100 µM

Question: What about the GI50 (DU-145 prostate) of the same compound?
Answer: 2.63 µM

Question: And the TGI (DU-145 prostate)?
Answer: > 100 µM

Question: And the GI50 (HS 578T breast)?
Answer: 28.3 µM

Question: And the TGI (HS 578T breast)?
Answer: > 100 µM

Question: What about the GI50 (SF-539 CNS) of the same compound?
Answer: 1 µM

Question: And the TGI (SF-539 CNS)?
Answer: 26.4 µM

Question: What about the GI50 (MCF7 breast) of the same compound?
Answer: 0.115 µM

Question: And the TGI (MCF7 breast)?
Answer: > 25.1 µM

Question: And the GI50 (UACC-62 melanoma)?
Answer: 0.14 µM

Question: And the TGI (UACC-62 melanoma)?
Answer: > 100 µM

Question: And the GI50 (LOX IMVI melanoma)?
Answer: 0.172 µM

Question: And the TGI (LOX IMVI melanoma)?
Answer: > 100 µM

Question: And the GI50 (NCI-H226 lung)?
Answer: 18.4 µM

Question: And the TGI (NCI-H226 lung)?
Answer: > 100 µM

Question: And the GI50 (CCRF-CEM leukemia)?
Answer: 0.243 µM

Question: And the TGI (CCRF-CEM leukemia)?
Answer: > 100 µM

Question: What about the GI50 (OVCAR-5 ovarian) of the same compound?
Answer: 0.468 µM

Question: And the TGI (OVCAR-5 ovarian)?
Answer: > 100 µM

Question: And the GI50 (K-562 leukemia)?
Answer: 0.737 µM

Question: What about the TGI (K-562 leukemia) of the same compound?
Answer: > 100 µM

Question: What about the GI50 (NCI/ADR-RES ovarian) of the same compound?
Answer: > 100 µM

Question: And the TGI (NCI/ADR-RES ovarian)?
Answer: > 100 µM

Question: And the GI50 (MDA-MB-231 breast)?
Answer: > 87.2 µM

Question: What about the TGI (MDA-MB-231 breast) of the same compound?
Answer: > 100 µM

Question: What about the TGI (IGROV1 ovarian) of the same compound?
Answer: > 100 µM

Question: And the GI50 (HL-60(TB) leukemia)?
Answer: 3.45 µM

Question: And the TGI (HL-60(TB) leukemia)?
Answer: > 100 µM

Question: And the GI50 (TK-10 renal)?
Answer: 4.94 µM

Question: What about the TGI (TK-10 renal) of the same compound?
Answer: > 100 µM

Question: What about the GI50 (UO-31 renal) of the same compound?
Answer: > 100 µM

Question: And the TGI (UO-31 renal)?
Answer: > 100 µM

Question: And the GI50 (HOP-62 NSCLC)?
Answer: 20.9 µM

Question: And the TGI (HOP-62 NSCLC)?
Answer: > 100 µM

Question: What about the GI50 (HOP-92 NSCLC) of the same compound?
Answer: > 39 µM

Question: What about the TGI (HOP-92 NSCLC) of the same compound?
Answer: > 100 µM

Question: What about the GI50 (SK-MEL-5 melanoma) of the same compound?
Answer: 0.125 µM

Question: And the TGI (SK-MEL-5 melanoma)?
Answer: 19.1 µM

Question: And the GI50 (T-47D breast)?
Answer: 10.6 µM

Question: What about the TGI (T-47D breast) of the same compound?
Answer: > 100 µM

Question: And the GI50 (MDA-MB-435)?
Answer: 0.18 µM

Question: What about the TGI (MDA-MB-435) of the same compound?
Answer: > 100 µM

Question: And the GI50 (RXF 393 renal)?
Answer: 1.35 µM

Question: What about the TGI (RXF 393 renal) of the same compound?
Answer: > 100 µM

Question: What about the GI50 (SR leukemia) of the same compound?
Answer: > 100 µM

Question: And the TGI (SR leukemia)?
Answer: > 100 µM

Question: And the TGI (CAKI-1 renal)?
Answer: > 100 µM

Question: And the GI50 (OVCAR-8 ovarian)?
Answer: 0.6 µM

Question: And the TGI (OVCAR-8 ovarian)?
Answer: > 100 µM

Question: What about the GI50 (ACHN renal) of the same compound?
Answer: 26.2 µM

Question: And the TGI (ACHN renal)?
Answer: > 100 µM

Question: And the GI50 (A498 renal)?
Answer: > 23.7 µM

Question: What about the TGI (A498 renal) of the same compound?
Answer: > 100 µM

Question: What about the GI50 (SF-295 CNS) of the same compound?
Answer: 2.61 µM

Question: What about the TGI (SF-295 CNS) of the same compound?
Answer: > 100 µM

Question: What about the GI50 (SW-620 colon) of the same compound?
Answer: 0.146 µM

Question: And the TGI (SW-620 colon)?
Answer: > 100 µM

Question: What about the GI50 (OVCAR-4 ovarian) of the same compound?
Answer: 12.3 µM

Question: What about the TGI (OVCAR-4 ovarian) of the same compound?
Answer: > 100 µM

Question: What about the GI50 (HCT-116 colon) of the same compound?
Answer: 0.62 µM

Question: What about the TGI (HCT-116 colon) of the same compound?
Answer: > 100 µM

Question: And the GI50 (NCI-H23 lung)?
Answer: 1.76 µM

Question: And the TGI (NCI-H23 lung)?
Answer: > 100 µM

Question: And the GI50 (SN12C renal)?
Answer: 0.447 µM

Question: And the TGI (SN12C renal)?
Answer: > 100 µM

Question: And the GI50 (BT-549 breast)?
Answer: 6.53 µM

Question: What about the TGI (BT-549 breast) of the same compound?
Answer: > 91.9 µM

Question: And the GI50 (U251 CNS)?
Answer: 0.148 µM

Question: And the TGI (U251 CNS)?
Answer: > 100 µM

Question: What about the GI50 (RPMI-8226 leukemia) of the same compound?
Answer: 0.464 µM

Question: And the TGI (RPMI-8226 leukemia)?
Answer: > 100 µM

Question: And the GI50 (OVCAR-3 ovarian)?
Answer: 12.2 µM

Question: And the TGI (OVCAR-3 ovarian)?
Answer: > 100 µM
